Measured values taken from patent US20220184032A1, “INDOLINE DERIVATIVES FOR TREATMENT AND/OR PREVENTION OF FIBROSIS DISEASES” (Taipei Medical University, priority 2015, published 2022).
Read-outs that look alike come from different tables or passages of the source.

Experiments:
[1] = system: Salmonella typhimurium TA98; assay: Ames test, TA98
Method: (§1) Two histidine auxotrophic mutants (TA98 and TA100) of Salmonella typhimurium were used. Test strains were obtained from the frozen working stock vial and thawed at room temperature. A 0.2 mL aliquot was inoculated into 25 mL nutrient broth medium and then incubated at 35-37° C. with shaking (120 rpm) for 16-18 hours. The test substance was dissolved in DMSO with 10-fold dilutions to obtain 4 stock concentrations at 30,000, 3,000, 300 and 30 μg/mL. Rat liver microsome enzyme homogenate (S9) mixture was prepared containing 8 mM MgCl2, 33 mM KCl, 4 mM NADP, 5 mM glucose-6-phosphate, 100 mM NaH2PO4 (pH 7.4) and 4% (v/v) Aroclor 1254-induced male rat liver microsome enzyme homogenate (S9). A […] aliquot of test compound stock solution was combined with 0.1 mL strain culture and with 0.5 mL rat liver enzyme homogenate (S9) mixture or 0.5 mL PBS, and then the mixture was incubated at 35-37° C. with shaking (120 rpm) for 20 min. Molten top agar (2 mL containing 0.05 mM histidine and 0.05 mM biotin) was added, and then the mixture was poured onto the surface of a minimal glucose agar plate (30 mL of bottom agar per petri plate) to obtain final test substance concentrations at 3000, 300, 30 and 3μg/plate. The plates were incubated at 37° C. for 72 hours, and then the numbers of His+ revertant colonies were counted. Treatments resulting in a three-fold increase (≥3×) in revertant colonies compared to the vehicle control were considered mutagenic. Treatments that reduced the colony counts to ≤50% of the vehicle control were considered cytotoxic. Assays were performed in triplicate.

[2] = system: Salmonella typhimurium TA100; assay: Ames test, TA100
Method: as §1

[3] = system: BLM-induced lung fibrosis; assay: Bleomycin (BLM)-induced lung fibrosis mice model, preventive model; type: in vivo; details: days 1 to 21 after BLM
Method: (§2) In preventive model, C57BL/6JNarl mice (8 weeks) were treated with bleomycin (BLM, 0.05 U/50 μl) or PBS (50 μl) by endotracheal administration. TMU-C-0012 (25, 50, 100 mg/kg/day, q.d.) and dexamethasone (0.5 mg/kg/day, q.d.) were administered orally to bleomycin-treated mice from 1 to 21 days after BLM treatment. On day 21, the mice were sacrificed and, the histologic analysis of lung tissue was performed by hematoxylin-eosin (H&E) staining (original magnification, ×100). In therapeutic model, C57BL/6JNarl mice (8 weeks) were treated with bleomycin (BLM, 0.05 U/50 μl) or PBS (50 μl) by endotracheal administration. TMU-C-0012 (25, 50, 100 mg/kg/day, q.d.) and pirfenidone (200 mg/kg/day, q.d.) were administered orally to bleomycin-treated mice from 10 to 38 days after BLM treatment. On day 39, the mice were sacrificed, and the histologic analysis of lung tissue was performed by hematoxylin-eosin (H&E) staining (original magnification, ×100).

[4] = system: BLM-induced lung fibrosis; assay: Bleomycin (BLM)-induced lung fibrosis mice model, therapeutic model; type: in vivo; details: days 10 to 38 after BLM
Method: as §2

[5] = system: OVA-induced lung fibrosis; assay: OVA lung fibrosis mice model; type: in vivo; details: weeks 4 to 12
Method: C57BL/6JNarl mice (8 weeks) were treated with OVA (50 μg/50 μl/day) or PBS (50 μl/day) by i.p. injection for 4 weeks. Then, mice were exposure of OVA (5% aerosol exposure) or PBS (aerosol exposure) for 8 weeks. TMU-C-0012 (25 mg/kg/day, q.d.) and dexamethasone (25 mg/kg/day, q.d.) were administered orally to OVA-injected mice from 4 weeks to 12 weeks. On weeks 12, the mice were sacrificed, and the histologic analysis of lung tissue was performed by hematoxylin-eosin (H&E) staining (original magnification, ×100).

[6] = system: CC14-induced liver fibrosis; assay: CC14-induced liver fibrosis in mice; type: in vivo; details: weeks 2 to 6
Method: C57BL/6JNarl mice (8 weeks) were treated with CC14 (1 μl/μg/BW, q.w.) or PBS (1 μl/μg/BW, q.w.) by i.p. injection for 6 weeks. TMU-C-0012 (25, 50, 100 mg/kg/day, q.d.) and pirfenidone (250 mg/kg/day, q.d.) were administered orally to CC14-injected mice from 2 weeks to 6 weeks. On day 43, the mice were sacrificed, and the α-SMA analysis of liver tissue was performed by IHC staining (original magnification, ×100).

in vitro = details: Chinese hamster, CHO cells with S9, % Cytotoxicity Cell Numbers; for cytotoxicity at 31 µM: 3.1E−05 M
[7] = TA98, Without S9, 3000 μg/plate
[8] = TA100, Without S9, 300 μg/plate
[9] = TA100, Without S9, 3000 μg/plate
[10] = first section (CHO + S9, HCA), 1.3E−04 M
[11] = first section (CHO + S9, HCA), 2.5E−04 M
[12] = first section (CHO + S9, HCA), 3.1E−05 M
[13] = first section (CHO + S9, HCA), 5.0E−04 M
[14] = first section (CHO + S9, HCA), 6.3E−05 M
[15] = second section (CHO + S9, HCA), 1.6E−05 M
[16] = second section (CHO + S9, HCA), 3.1E−05 M
[17] = second section (CHO + S9, HCA), 7.8E−06 M
[18] = reference compound, first section (CHO + S9, HCA), 3.6E−05 M

O=C(/C=C/c1ccc2c(c1)CCN2S(=O)(=O)c1ccccc1)NO [TMU-C-0012, 3-(1-Benzenesulfonyl-2,3-dihydro-1H-indol-5-yl)-N-hydroxyacrylamide]
Cytotoxicity ([1]; TA98, With S9, 3 μg/plate): −
Mutagenicity ([1]; TA98, With S9, 3 μg/plate): −
Cytotoxicity ([1]; TA98, With S9, 30 μg/plate): −
Mutagenicity ([1]; TA98, With S9, 30 μg/plate): −
Cytotoxicity ([1]; TA98, With S9, 300 μg/plate): −
Mutagenicity ([1]; TA98, With S9, 300 μg/plate): −
Cytotoxicity ([1]; TA98, With S9, 3000 μg/plate): −
Mutagenicity ([1]; TA98, With S9, 3000 μg/plate): −
Cytotoxicity ([1]; TA98, Without S9, 3 μg/plate): −
Mutagenicity ([1]; TA98, Without S9, 3 μg/plate): −
Cytotoxicity ([1]; TA98, Without S9, 30 μg/plate): −
Mutagenicity ([1]; TA98, Without S9, 30 μg/plate): −
Cytotoxicity ([1]; TA98, Without S9, 300 μg/plate): −
Mutagenicity ([1]; TA98, Without S9, 300 μg/plate): −
Cytotoxicity [1, 7]: −
Mutagenicity [1, 7]: −
genotoxicity (Ames test results) ([1]; overall Ames test result, TA98 and TA100, with and without S9): negative
Cytotoxicity ([2]; TA100, With S9, 3 μg/plate): −
Mutagenicity ([2]; TA100, With S9, 3 μg/plate): −
Cytotoxicity ([2]; TA100, With S9, 30 μg/plate): −
Mutagenicity ([2]; TA100, With S9, 30 μg/plate): −
Cytotoxicity ([2]; TA100, With S9, 300 μg/plate): −
Mutagenicity ([2]; TA100, With S9, 300 μg/plate): −
Cytotoxicity ([2]; TA100, With S9, 3000 μg/plate): −
Mutagenicity ([2]; TA100, With S9, 3000 μg/plate): −
Cytotoxicity ([2]; TA100, Without S9, 3 μg/plate): −
Mutagenicity ([2]; TA100, Without S9, 3 μg/plate): −
Cytotoxicity ([2]; TA100, Without S9, 30 μg/plate): −
Mutagenicity ([2]; TA100, Without S9, 30 μg/plate): −
Cytotoxicity [2, 8]: −
Mutagenicity [2, 8]: −
Cytotoxicity [2, 9]: −
Mutagenicity [2, 9]: −
inhibition of BLM-induced lung fibrosis ([3]; 25, 50, 100 mg/kg/day q.d. orally, H&E lung histology day 21): inhibits BLM-induced lung fibrosis in a dose-dependent manner
efficacy in the inhibition compared with dexamethasone ([3]; dexamethasone 0.5 mg/kg/day q.d. orally): higher than dexamethasone
inhibition of BLM-induced lung fibrosis ([4]; 25, 50, 100 mg/kg/day q.d. orally, H&E lung histology day 39): inhibits BLM-induced lung fibrosis in a dose-dependent manner
efficacy in inhibition compared with pirfenidone ([4]; pirfenidone 200 mg/kg/day q.d. orally): higher than pirfenidone
inhibition of OVA-induced lung fibrosis ([5]; 25 mg/kg/day q.d. orally, H&E lung histology week 12): inhibits OVA-induced lung fibrosis in a dose dependent manner
efficacy in inhibition compared with dexamethasone ([5]; dexamethasone 25 mg/kg/day q.d. orally): higher than dexamethasone
inhibition on CC14-induced liver fibrosis ([6]; 25, 50, 100 mg/kg/day q.d. orally, α-SMA IHC of liver day 43): dose-dependent
efficacy in inhibition compared with pirfenidone ([6]; pirfenidone 250 mg/kg/day q.d. orally): higher than pirfenidone
% Cytotoxicity CBPI Index (CHO; [10]): 57.4%
% Micronucleated Cells (CHO; [10]): 1.45%
% Cytotoxicity CBPI Index (CHO; [11]): 62.2%
% Micronucleated Cells (CHO; [11]): 1.76%
% Cytotoxicity CBPI Index (CHO; [12]): 41.5%
% Micronucleated Cells (CHO; [12]): 1.64%
% Cytotoxicity CBPI Index (CHO; [13]): 68.8%
% Micronucleated Cells (CHO; [13]): 1.94%
% Cytotoxicity CBPI Index (CHO; [14]): 47.3%
% Micronucleated Cells (CHO; [14]): 1.26%
genotoxicity (micronucleus assay) (CHO; overall result of the assay): negative
Flat (CHO; second section (CHO + S9, HCA), 1.3E−04 M): CYTO (High cytotoxicity resulting in an insufficient number of scored cells (≥80% cytotoxicity))
% Cytotoxicity CBPI Index (CHO; [15]): 53.1%
% Micronucleated Cells (CHO; [15]): 1.35%
Flat (CHO; second section (CHO + S9, HCA), 2.5E−04 M): CYTO (High cytotoxicity resulting in an insufficient number of scored cells (≥80% cytotoxicity))
% Cytotoxicity CBPI Index (CHO; [16]): 58.8%
% Micronucleated Cells (CHO; [16]): 1.25%
Flat (CHO; second section (CHO + S9, HCA), 6.3E−05 M): CYTO (High cytotoxicity resulting in an insufficient number of scored cells (≥80% cytotoxicity))
% Cytotoxicity CBPI Index (CHO; [17]): 26.7%
% Micronucleated Cells (CHO; [17]): 1.29%
cytotoxicity at 0.00013 M (in vitro; [10]): 37.6%
cytotoxicity at 0.00025 M (in vitro; [11]): 51.8%
cytotoxicity at 31 µM (in vitro; first section (CHO + S9, HCA)): 19.1%
cytotoxicity at 0.0005 M (in vitro; [13]): 61.7%
cytotoxicity at 63 µM (in vitro; [14]): 31.9%
cytotoxicity at 16 µM (in vitro; [15]): 60.4%
cytotoxicity at 31 µM (in vitro; second section (CHO + S9, HCA)): 69%
cytotoxicity at 7.8 µM (in vitro; [17]): 42.2%

O=P1(N(CCCl)CCCl)NCCCO1 (stereo not shown) [Cyclophosphamide, reference compound]
% Cytotoxicity CBPI Index (CHO; [18]): 46.3%
% Micronucleated Cells (CHO; [18]): 5.31%
Test Result (CHO; [18]): + (p < 0.05 by t-test and % of micronucleated cells at least 3-fold higher than background levels.)

CO[C@@]12[C@H](COC(N)=O)C3=C(C(=O)C(C)=C(N)C3=O)N1C[C@@H]1N[C@@H]12 [Mitomycin C, reference compound]
% Micronucleated Cells (CHO; reference compound, second section (CHO + S9, HCA), 3.0E−07 M): 4.38%
